Key:
Format in all cases: in vivo
[1] = test system: ragweed (common ragweed, Ambrosia elatior); experiment: Test B pre-/postemergence plant response
How it was run: (§1)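 Seeds in loam–sand blend given preemergence soil spray; separately, plants at one- to two-leaf stage (2–10 cm) sprayed postemergence, compounds in non-phytotoxic solvent with surfactant. Injury rated visually versus untreated controls after ~10 days in greenhouse, 0 (no effect) to 100 (complete control).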

[2] = test system: Italian ryegrass (Lolium multiflorum); experiment: Test B pre-/postemergence plant response
How it was run: as §1

[3] = test system: giant foxtail (Setaria faberii); experiment: Test B pre-/postemergence plant response
How it was run: as §1

[4] = test system: corn (Zea mays); experiment: Test B pre-/postemergence plant response
How it was run: as §1

[5] = test system: barnyardgrass (Echinochloa crus-galli); experiment: Test B pre-/postemergence plant response
How it was run: as §1

[6] = test system: pigweed (Amaranthus retroflexus); experiment: Test B pre-/postemergence plant response
How it was run: as §1

[7] = test system: kochia (Kochia scoparia); experiment: Test B pre-/postemergence plant response
How it was run: as §1

[8] = test system: wheat (Triticum aestivum); experiment: Test B pre-/postemergence plant response
How it was run: as §1

[9] = test system: ducksalad (Heteranthera limosa); experiment: Test C flooded paddy test plant response; conditions: Flood, 250 g ai/ha; scale of 0 to 100 where 0 is no effect and 100 is complete control; 13 to 15 days
How it was run: (§2)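 Flooded-pot format, 3 cm water over soil maintained for the test duration; test compounds dispensed into the water at the 2-leaf stage. Greenhouse holding 13 to 15 days. Plants evaluated visually relative to untreated controls, 0 meaning no effect and 100 complete control.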

[10] = test system: barnyardgrass (Echinochloa crus-galli); experiment: Test C flooded paddy test plant response; conditions: Flood, 250 g ai/ha; scale of 0 to 100 where 0 is no effect and 100 is complete control; 13 to 15 days
How it was run: as §2

[11] = test system: small-flower umbrella sedge (Cyperus difformis); experiment: Test C flooded paddy test plant response; conditions: Flood, 250 g ai/ha; scale of 0 to 100 where 0 is no effect and 100 is complete control; 13 to 15 days
How it was run: as §2

[12] = test system: rice (Oryza sativa); experiment: Test C flooded paddy test plant response; conditions: Flood, 250 g ai/ha; scale of 0 to 100 where 0 is no effect and 100 is complete control; 13 to 15 days
How it was run: as §2

[13] = test system: galium (catchweed bedstraw, Galium aparine); experiment: Test B postemergence plant response
How it was run: (§3)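 Weeds grown in loam soil/sand pots were sprayed postemergence at 2 to 10 cm height, one- to two-leaf stage. After approximately 10 days in greenhouse, injury was rated visually against untreated controls on a 0 (no effect) to 100 (complete control) scale; dash means no test result.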

[14] = test system: blackgrass (Alopecurus myosuroides); experiment: Test B postemergence plant response
How it was run: as §3

[15] = 31 g ai/ha, Postemergence, 0 to 100 scale, 0 no effect, 100 complete control
[16] = 31 g ai/ha, Preemergence, 0 to 100 scale where 0 is no effect and 100 is complete control
[17] = 125 g ai/ha, postemergence, 0 to 100 scale, 0 no effect, 100 complete control
[18] = Preemergence, 125 g ai/ha, 0 to 100 scale where 0 is no effect and 100 is complete control
[19] = Preemergence, 31 g ai/ha, 0 to 100 scale (0 no effect, 100 complete control)
[20] = Postemergence, 31 g ai/ha, 0 to 100 scale (0 no effect, 100 complete control)
[21] = Preemergence, 125 g ai/ha, 0 to 100 scale (0 no effect, 100 complete control)

Row | Compound | Plant response rating, Ragweed [1, 15] | Plant response rating, Ragweed [1, 16] | Plant response rating, Ragweed [1, 17] | Plant response rating, Ryegrass, Italian [2, 15] | Plant response rating, Ryegrass, Italian [2, 16] | Plant response rating, Ryegrass, Italian [2, 17] | Plant response rating, Foxtail, Giant [3, 15] | Plant response rating, Foxtail, Giant [3, 16] | Plant response rating, Foxtail, Giant [3, 17] | Plant response rating, Corn [4, 17] | Plant response rating, Barnyardgrass [5, 17] | Plant response rating, Pigweed [6, 17] | Plant response rating, Kochia [7, 17] | Plant response rating, Wheat [8, 17] | Ducksalad plant response rating [9] | Barnyardgrass plant response rating [10] | Sedge, Umbrella plant response rating [11] | Rice plant response rating [12] | Plant response rating, Galium [13, 17] | Plant response rating, Blackgrass [14, 17] | other results
1 | Brc1cnc(Oc2ccccc2-c2cc(Br)no2)nc1 [Compound 119] | 10 | 0 | 10 | 0 | 0 | 0 | 0 | 0 | 10 | 0 | 0 | 80 | 30 | 0 | 40 | 0 | 40 | 0 | 60 | 0 | Plant response rating, Foxtail, Giant [3, 18]: 50; Plant response rating, Corn [4, 15]: 0; Plant response rating, Barnyardgrass [5, 15]: 0; Plant response rating, Barnyardgrass [5, 16]: 0; Plant response rating, Barnyardgrass [5, 18]: 0; Plant response rating, Pigweed [6, 15]: 40; Plant response rating, Pigweed [6, 16]: 0; Plant response rating, Kochia [7, 15]: 0; Plant response rating, Kochia [7, 16]: 0; Plant response rating, Kochia [7, 18]: 10; Plant response rating, Wheat [8, 15]: 0; Plant response rating, Galium [13, 15]: 30; Plant response rating, Blackgrass [14, 15]: 0
2 | Clc1cnc(Oc2ccccc2-c2cc(C(Cl)Cl)on2)nc1 [Compound 97] | 20 | – | 50 | 0 | – | 0 | 0 | – | 30 | 20 | 20 | 90 | 90 | 0 | 0 | 0 | 50 | 0 | 50 | 0 | Ragweed plant response rating [1, 19]: 0; Plant response rating, Ragweed [1, 18]: 0; Ryegrass, Italian plant response rating [2, 19]: 0; Plant response rating, Ryegrass, Italian [2, 18]: 0; Foxtail, Giant plant response rating [3, 19]: 10; Plant response rating, Foxtail, Giant [3, 18]: 30; Plant response rating, Corn [4, 15]: 0; Plant response rating, Barnyardgrass [5, 15]: 0; Barnyardgrass plant response rating [5, 19]: 0; Plant response rating, Barnyardgrass [5, 18]: 0; Plant response rating, Pigweed [6, 15]: 60; Pigweed plant response rating [6, 19]: 20; Plant response rating, Pigweed [6, 18]: 50; Plant response rating, Kochia [7, 15]: 60; Kochia plant response rating [7, 19]: 0; Plant response rating, Kochia [7, 18]: 30; Plant response rating, Wheat [8, 15]: 0; Plant response rating, Galium [13, 15]: 10; Plant response rating, Blackgrass [14, 15]: 0
3 | Fc1cnc(Oc2cccc(F)c2-c2cnccn2)nc1 [Compound 166] | – | 0 | 30 | – | 0 | 0 | – | 0 | 0 | 10 | 0 | 30 | 0 | 0 | 0 | 0 | 0 | 0 | 30 | 0 | Plant response rating, Ragweed [1, 20]: 10; Ragweed plant response rating [1, 21]: 20; Plant response rating, Ryegrass, Italian [2, 20]: 0; Ryegrass, Italian plant response rating [2, 21]: 0; Plant response rating, Foxtail, Giant [3, 20]: 0; Foxtail, Giant plant response rating [3, 21]: 0; Plant response rating, Corn [4, 20]: 0; Plant response rating, Barnyardgrass [5, 16]: 0; Plant response rating, Barnyardgrass [5, 20]: 0; Barnyardgrass plant response rating [5, 21]: 0; Plant response rating, Pigweed [6, 16]: 40; Plant response rating, Pigweed [6, 20]: 20; Pigweed plant response rating [6, 21]: 60; Plant response rating, Kochia [7, 16]: 0; Plant response rating, Kochia [7, 20]: 0; Kochia plant response rating [7, 21]: 0; Plant response rating, Wheat [8, 20]: 0; Plant response rating, Galium [13, 20]: 20; Plant response rating, Blackgrass [14, 20]: 0

From patent publication US10131652B2, “Pyrimidinyloxy benzene derivatives as herbicides” (E. I. DU PONT DE NEMOURS AND COMPANY, priority 2014, dated 2018)
